Reference: patent US20250368649A1, “TETRAHYDROPYRIDOPYRIMIDINE PAN-KRAS INHIBITORS” (Mirati Therapeutics, Inc., priority 2022, published 2025)

Legend:
PSN1 cells = experiment: Inhibition of KRas-mediated phosphorylation of ERK (Cisbio HTRF pERK), PSN1 cells; assay type: cell-based; settings: Homo sapiens, PSN1, 3 h, 3 hour compound incubation, Cisbio pERK HTRF
Outline: (§1)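 On the first day, plate 6,000 cells into each well in RPMI medium with 10% fetal bovine serum.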

KRas G12R = KRas G12R (Homo sapiens, UniProt P01116, G12R); experiment: biochemical; settings: Binding to KRas (IC50 nM) G12R, TR-FRET displacement, KRas G12R
ASPC1 cells = experiment: Inhibition of KRas-mediated phosphorylation of ERK (Cisbio HTRF pERK), ASPC1 cells; assay type: cell-based; settings: Homo sapiens, AsPC-1 cells; for IC50: ASPC1, 3 h, 3 hr compound incubation, Cisbio pERK HTRF; for inhibition at 0.1 µM: ASPC1, single point at 100 nM, 3 hrs compound incubation
KRas G12D = KRas G12D (Homo sapiens, UniProt P01116, G12D); experiment: biochemical; settings: Binding to KRas (IC50 nM) G12D, TR-FRET displacement, KRas G12D
H460 cells = experiment: Inhibition of KRas-mediated phosphorylation of ERK (Cisbio HTRF pERK), H460 cells; assay type: cell-based; settings: Homo sapiens; for inhibition at 0.1 µM: NCI-H460, single point at 100 nM, 3 hrs compound incubation
KRas Q61H = KRas Q61H (Homo sapiens, UniProt P01116, Q61H); experiment: KRas binding assay (TR-FRET displacement), KRas Q61H; settings: single point, 10 nM compound
KRas G13D = KRas G13D (Homo sapiens, UniProt P01116, G13D); assay type: binding; settings: single point, 10 nM compound, read-out: Binding to KRas (% inhibition at 10 nM) G13D
KRas WT = KRas WT (Homo sapiens, UniProt P01116); experiment: KRas binding assay (TR-FRET displacement), KRas WT; settings: single point, 10 nM compound
MKN1 cells = experiment: Inhibition of KRas-mediated phosphorylation of ERK (Cisbio HTRF pERK), MKN1 cells; assay type: cell-based; settings: Homo sapiens, MKN-1, 3 hour compound incubation, Cisbio pERK HTRF
Outline: as §1

HCT116 cells = experiment: Inhibition of KRas-mediated phosphorylation of ERK (Cisbio HTRF pERK), HCT116 cells; assay type: cell-based; settings: Homo sapiens; for inhibition at 0.1 µM: HCT-116, single point at 100 nM, 3 hrs compound incubation
KRas G12A = KRas G12A (Homo sapiens, UniProt P01116, G12A); assay type: binding; settings: single point, 10 nM compound, read-out: Binding to KRas (% inhibition at 10 nM) G12A
A549 cells = experiment: Inhibition of KRas-mediated phosphorylation of ERK (Cisbio HTRF pERK), A549 cells; assay type: cell-based; settings: Homo sapiens; for inhibition at 0.1 µM: single point at 100 nM, 3 hrs compound incubation
KRas G12V = KRas G12V (Homo sapiens, UniProt P01116, G12V); experiment: biochemical; settings: Binding to KRas (IC50 nM) G12V, TR-FRET displacement, KRas G12V
KRas G12S = KRas G12S (Homo sapiens, UniProt P01116, G12S); assay type: binding; settings: single point, 10 nM compound, read-out: Binding to KRas (% inhibition at 10 nM) G12S
KRas G12C = KRas G12C (Homo sapiens, UniProt P01116, G12C); assay type: binding; settings: single point, 10 nM compound, read-out: Binding to KRas (% inhibition at 10 nM) G12C
H727 cells = experiment: Inhibition of KRas-mediated phosphorylation of ERK (Cisbio HTRF pERK), H727 cells; assay type: cell-based; settings: Homo sapiens; for IC50: NCI-H727, 3 h, 3 hr compound incubation, Cisbio pERK HTRF; for inhibition at 0.1 µM: NCI-H727, single point at 100 nM, 3 hrs compound incubation
H358 cells = experiment: Inhibition of KRas-mediated phosphorylation of ERK (Cisbio HTRF pERK), H358 cells; assay type: cell-based; settings: Homo sapiens; for inhibition at 0.1 µM: NCI-H358, single point at 100 nM, 3 hrs compound incubation

Sequence of KRas G12D (P01116 1-169 isoform P01116-2 G12D): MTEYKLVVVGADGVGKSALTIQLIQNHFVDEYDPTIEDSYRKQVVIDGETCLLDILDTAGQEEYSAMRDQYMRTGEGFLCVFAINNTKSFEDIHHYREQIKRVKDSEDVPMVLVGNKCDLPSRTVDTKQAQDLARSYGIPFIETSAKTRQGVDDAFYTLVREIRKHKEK
Sequence of KRas G12V (P01116 1-169 isoform P01116-2 G12V): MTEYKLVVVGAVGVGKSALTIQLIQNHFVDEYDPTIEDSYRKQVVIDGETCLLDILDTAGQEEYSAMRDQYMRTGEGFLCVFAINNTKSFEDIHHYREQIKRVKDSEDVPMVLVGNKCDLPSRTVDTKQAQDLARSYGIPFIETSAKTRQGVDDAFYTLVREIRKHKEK
Sequence of KRas WT (P01116 1-169 isoform P01116-2): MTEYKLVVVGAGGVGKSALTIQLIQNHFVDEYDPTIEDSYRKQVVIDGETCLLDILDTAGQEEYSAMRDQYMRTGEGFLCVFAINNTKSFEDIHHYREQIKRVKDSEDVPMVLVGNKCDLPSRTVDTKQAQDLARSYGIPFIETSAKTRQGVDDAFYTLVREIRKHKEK
Sequence of KRas G12S (P01116 1-169 isoform P01116-2 G12S): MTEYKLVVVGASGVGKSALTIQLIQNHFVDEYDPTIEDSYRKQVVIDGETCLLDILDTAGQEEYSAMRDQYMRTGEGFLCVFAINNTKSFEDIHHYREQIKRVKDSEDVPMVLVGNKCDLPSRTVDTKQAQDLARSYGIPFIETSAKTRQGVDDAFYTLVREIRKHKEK
Sequence of KRas Q61H (P01116 1-169 isoform P01116-2 Q61H): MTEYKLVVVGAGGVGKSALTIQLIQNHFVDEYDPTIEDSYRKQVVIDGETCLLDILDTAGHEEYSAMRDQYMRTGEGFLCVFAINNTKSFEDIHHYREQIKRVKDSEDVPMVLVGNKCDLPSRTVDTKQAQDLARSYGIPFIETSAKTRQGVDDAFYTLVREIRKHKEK
Sequence of KRas G12R (P01116 1-169 isoform P01116-2 G12R): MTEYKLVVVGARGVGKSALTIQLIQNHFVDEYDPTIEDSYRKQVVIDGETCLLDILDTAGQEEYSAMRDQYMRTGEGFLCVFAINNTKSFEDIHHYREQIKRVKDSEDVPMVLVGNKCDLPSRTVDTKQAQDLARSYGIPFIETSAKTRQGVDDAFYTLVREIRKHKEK
Sequence of KRas G12A (P01116 1-169 isoform P01116-2 G12A): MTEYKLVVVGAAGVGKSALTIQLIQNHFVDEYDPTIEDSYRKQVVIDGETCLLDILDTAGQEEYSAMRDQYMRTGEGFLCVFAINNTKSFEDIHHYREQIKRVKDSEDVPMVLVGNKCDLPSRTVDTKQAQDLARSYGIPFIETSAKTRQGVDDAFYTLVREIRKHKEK
Sequence of KRas G12C (P01116 1-169 isoform P01116-2 G12C): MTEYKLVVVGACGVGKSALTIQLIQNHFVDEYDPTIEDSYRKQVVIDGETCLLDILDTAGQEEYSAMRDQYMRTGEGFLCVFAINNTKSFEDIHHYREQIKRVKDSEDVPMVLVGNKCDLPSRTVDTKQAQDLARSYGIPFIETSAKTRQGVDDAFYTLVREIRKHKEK
Sequence of KRas G13D (P01116 1-169 isoform P01116-2 G13D): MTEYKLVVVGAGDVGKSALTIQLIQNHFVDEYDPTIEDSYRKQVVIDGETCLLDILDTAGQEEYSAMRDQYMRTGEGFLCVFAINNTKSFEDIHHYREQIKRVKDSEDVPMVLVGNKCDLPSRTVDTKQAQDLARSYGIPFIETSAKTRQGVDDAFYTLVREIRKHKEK

Row | Structure (SMILES) | IC50 (PSN1 cells) [nM] | IC50 (KRas G12R) [nM] | IC50 (ASPC1 cells) [nM] | inhibition at 0.1 µM (ASPC1 cells) [%] | IC50 (KRas G12D) [nM] | inhibition at 0.1 µM (H460 cells) [%] | inhibition at 0.01 µM (KRas Q61H) [%] | inhibition at 0.01 µM (KRas G13D) [%] | inhibition at 0.01 µM (KRas WT) [%] | IC50 (MKN1 cells) [nM] | inhibition at 0.1 µM (HCT116 cells) [%] | inhibition at 0.01 µM (KRas G12A) [%] | inhibition at 0.1 µM (A549 cells) [%] | IC50 (KRas G12V) [nM] | inhibition at 0.01 µM (KRas G12S) [%] | inhibition at 0.01 µM (KRas G12C) [%] | IC50 (H727 cells) [nM] | inhibition at 0.1 µM (H727 cells) [%] | inhibition at 0.1 µM (H358 cells) [%] | further results
1 | CCc1c(F)ccc2cc(O)cc(N3CCc4c(nc(OC[C@@]56CCCN5C[C@H](F)C6)nc4N4CCCn5nc(C(=O)N6C7CCC6CNC7)cc5C4)C3)c12 [Example 258, 3,8-diazabicyclo[3.2.1]octan-8-yl(5-(7-(8-ethyl-7-fluoro-3-hydroxynaphthalen-1-yl)-2-(((2R,7aS)-2-fluorohexahydro-1H-pyrrolizin-7a-yl)methoxy)-5,6,7,8-tetrahydropyrido[3,4-d]pyrimidin-4-yl)-5,6,7,8-tetrahydro-4H-pyrazolo[1,5-a][1,4]diazepin-2-yl)methanone] | 8640 | < 2 | 29 | 79 | < 2 | 24 | 97 | 98 | 97 | 5.4 | 3 | 98 | 42 | < 2 | 99 | 100 | 24 | 55 | 95 | 
2 | CCc1c(F)ccc2cc(O)cc(N3CCc4c(nc(OC[C@@]56CCCN5C[C@H](F)C6)nc4N4CCCn5nc(C(=O)N6CCN7CCC6C7)cc5C4)C3)c12 (stereo partly drawn) [Example 259, (1,4-diazabicyclo[3.2.1]octan-4-yl)(5-(7-(8-ethyl-7-fluoro-3-hydroxynaphthalen-1-yl)-2-(((2R,7aS)-2-fluorotetrahydro-1H-pyrrolizin-7a(5H)-yl)methoxy)-5,6,7,8-tetrahydropyrido[3,4-d]pyrimidin-4-yl)-5,6,7,8-tetrahydro-4H-pyrazolo[1,5-a][1,4]diazepin-2-yl)methanone] | 3940 | < 2 | 32 | 79 | < 2 | 14 | 96 | 96 | 94 | 3.3 | -11 | 94 | 6 | < 2 | 98 | 97 | 287 | 29 | 66 | 
3 | CCc1c(F)ccc2cc(O)cc(N3CCc4c(nc(OC[C@@]56CCCN5C[C@H](F)C6)nc4N4CCCn5nc(C(=O)N6CC7CCC6CN7C)cc5C4)C3)c12 (stereo partly drawn) [Example 260, (5-(7-(8-ethyl-7-fluoro-3-hydroxynaphthalen-1-yl)-2-(((2R,7aS)-2-fluorohexahydro-1H-pyrrolizin-7a-yl)methoxy)-5,6,7,8-tetrahydropyrido[3,4-d]pyrimidin-4-yl)-5,6,7,8-tetrahydro-4H-pyrazolo[1,5-a][1,4]diazepin-2-yl)(5-methyl-2,5-diazabicyclo[2.2.2]octan-2-yl)methanone] | > 10000 | < 2 | 2 | 98 | < 2 | 38 | 98 | 98 | 98 | 29.2 | 29 | 97 | 73 | < 2 | 99 | 99 | 8 | 54 | 97 | IC50 (H460 cells; NCI-H460, 3 h, 3 hr compound incubation, Cisbio pERK HTRF): 102 nM; IC50 (HCT116 cells; HCT-116, 3 h, 3 hr compound incubation, Cisbio pERK HTRF): 151 nM; IC50 (A549 cells; A549, 3 h, 3 hr compound incubation, Cisbio pERK HTRF): 53 nM; IC50 (H358 cells; NCI-H358, 3 h, 3 hr compound incubation, Cisbio pERK HTRF): 17 nM
4 | CCc1c(F)ccc2cc(O)cc(N3CCc4c(nc(OC[C@@]56CCCN5C[C@H](F)C6)nc4N4CCCn5nc(C(=O)N6CC7CC6CN7C)cc5C4)C3)c12 (stereo partly drawn) [Example 261, (5-(7-(8-ethyl-7-fluoro-3-hydroxynaphthalen-1-yl)-2-(((2R,7aS)-2-fluorohexahydro-1H-pyrrolizin-7a-yl)methoxy)-5,6,7,8-tetrahydropyrido[3,4-d]pyrimidin-4-yl)-5,6,7,8-tetrahydro-4H-pyrazolo[1,5-a][1,4]diazepin-2-yl)(5-methyl-2,5-diazabicyclo[2.2.1]heptan-2-yl)methanone] | > 10000 | < 2 | 23 | 89 | < 2 | 37 | 96 | 97 | 97 | 57.4 | 15 | 98 | 40 | < 2 | 99 | 99 | 63 | 29 | 88 | 
5 | CCc1c(F)ccc2cc(O)cc(N3CCc4c(nc(OC[C@@]56CCCN5C[C@H](F)C6)nc4N4CCCn5nc(C(=O)N6CC7CC(C6)N7C)cc5C4)C3)c12 [Example 262] | > 10000 | < 2 | 14 | 94 | < 2 | 21 | 96 | 97 | 95 | 56 | 16 | 95 | 47 | < 2 | 98 | 99 | 78 | 38 | 91 | 
6 | CCc1c(F)ccc2cc(O)cc(N3CCc4c(nc(OC[C@@]56CCCN5C[C@H](F)C6)nc4N4CCCn5nc(C(=O)N6CC7CCC(C6)N7)cc5C4)C3)c12 [Example 265, 3,8-diazabicyclo[3.2.1]octan-3-yl(5-(7-(8-ethyl-7-fluoro-3-hydroxynaphthalen-1-yl)-2-(((2R,7aS)-2-fluorohexahydro-1H-pyrrolizin-7a-yl)methoxy)-5,6,7,8-tetrahydropyrido[3,4-d]pyrimidin-4-yl)-5,6,7,8-tetrahydro-4H-pyrazolo[1,5-a][1,4]diazepin-2-yl)methanone] | > 10000 | < 2 | 31 | 63 | < 2 | -4 | 97 | 99 | 98 | 23.1 | 16 | 97 | 32 | < 2 | 99 | 100 | 217 | 40 | 60 | 
